Assay type in all cases: biochemical
In test [1] the target is T1, APC (Homo sapiens, UniProt P04070). The test can be described thus: APC-catalyzed inactivation of Factor Va, residual Va by prothrombinase assay. On the set-up: Protein C consists of a 155 amino acid residue light chain and a 262 amino acid residue heavy chain; from tissue; Factor Va a gift (Tans and Rosing, Univ. of Limburg). The protocol: The APC catalyzed inactivation of Factor Va assays were performed in 96-well flat bottom ELISA plates (Stockwell Scientific, Walnut, Calif.). The reactions were performed either in the presence or absence of phospholipid vesicles to determine if either PC311-325 or PC142-155 inhibited APC anticoagulant activity by inhibiting the binding of APC or its substrate to phospholipids or if it was independent of phospholipid surfaces. This determination was relevant in light of reports that the assembly of APC with its substrates Va and VIIIa on the phospholipid surface appeared to be mediated mainly by the Gla-domain of APC in the presence of calcium which was crucial for exerting significant anticoagulant activity. [Sugo et al., J. Biol. Chem., 260:10453-10457 (1985); […] et al., J. Biol. Chem., 261:9684-9693 (1986); Solymoss et al., J. Biol. Chem., 263:14884-14890 (1988)]. For the preparation of phospholipid residues for use in the assay bovine brain phosphatidylserine in chloroform […]/methanol (CH3 OH) and soybean phosphatidylcholine (Type III-S, CCl4 solution) were purchased from Sigma and were reported to be at least 98% homogeneous (supplier's estimates). To prepare vesicles, phosphatidylserine was admixed with phosphatidylcholine (20% phosphatidylserine/80% phosphatidylcholine; M/M) and the organic solvent evaporated under a stream of nitrogen. The resultant phospholipid admixture was resuspended in 0.05 M TBS-Az at pH 7.4 as a 1.25 mM solution by vortexing. Single bilayer vesicles were obtained during sonication by direct probe (Heat-Systems-Ultrasonics, Inc., […] Sonicator) for 6×30 second bursts at 30 W in 2 minute intervals at 4° C. The reaction buffer consisted of 0.05 M Tris-HCl, at pH 7.4 containing 0.1 M NaCl, 0.02% NaN3, 0.5% BSA and 2.5 mM CaCl2. […] M/M) either at 22° C. (in the presence of phospholipids) or at 37° C. (in the absence of phospholipids). […] The monoclonal antibody C3 which specifically recognizes the light-chain of PC as well as APC was prepared as in Example 2. Factor Va (a gift from Drs. Tans and Rosing, Univ. of Limburg, the Netherlands) was first admixed with or without PC311-325 or PC142-155 and maintained for 20 minutes either at 22° C. or at 37° C. prior to admixture with APC. […] Factor Va was determined via its cofactor activity in the activation of prothrombin by Factor Xa. […] The molar concentration of Factor Xa was determined by active site titration as described by Chase et al., Biochem. Biophys. […]
Target sequence in this assay (P12259 29-737 partner limits assumed): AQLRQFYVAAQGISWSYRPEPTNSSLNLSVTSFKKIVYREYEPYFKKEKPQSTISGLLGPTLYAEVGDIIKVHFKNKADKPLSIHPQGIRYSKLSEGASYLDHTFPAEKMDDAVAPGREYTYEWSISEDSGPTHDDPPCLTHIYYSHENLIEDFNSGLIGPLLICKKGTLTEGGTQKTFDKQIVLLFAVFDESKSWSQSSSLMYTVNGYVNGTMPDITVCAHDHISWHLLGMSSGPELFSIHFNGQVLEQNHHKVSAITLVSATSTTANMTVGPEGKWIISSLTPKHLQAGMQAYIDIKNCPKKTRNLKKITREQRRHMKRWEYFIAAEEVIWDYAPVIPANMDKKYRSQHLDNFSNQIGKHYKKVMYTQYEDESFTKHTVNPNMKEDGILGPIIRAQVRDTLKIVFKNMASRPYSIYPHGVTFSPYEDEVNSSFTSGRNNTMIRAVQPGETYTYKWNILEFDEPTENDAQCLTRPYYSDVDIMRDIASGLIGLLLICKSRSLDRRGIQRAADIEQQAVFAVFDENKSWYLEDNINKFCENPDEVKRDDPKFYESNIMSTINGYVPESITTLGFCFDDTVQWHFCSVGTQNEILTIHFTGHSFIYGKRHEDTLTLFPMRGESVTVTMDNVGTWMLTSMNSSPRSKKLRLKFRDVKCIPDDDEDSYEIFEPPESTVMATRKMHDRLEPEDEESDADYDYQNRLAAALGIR
Target sequence in this assay (P12259 1574-2224 partner limits assumed): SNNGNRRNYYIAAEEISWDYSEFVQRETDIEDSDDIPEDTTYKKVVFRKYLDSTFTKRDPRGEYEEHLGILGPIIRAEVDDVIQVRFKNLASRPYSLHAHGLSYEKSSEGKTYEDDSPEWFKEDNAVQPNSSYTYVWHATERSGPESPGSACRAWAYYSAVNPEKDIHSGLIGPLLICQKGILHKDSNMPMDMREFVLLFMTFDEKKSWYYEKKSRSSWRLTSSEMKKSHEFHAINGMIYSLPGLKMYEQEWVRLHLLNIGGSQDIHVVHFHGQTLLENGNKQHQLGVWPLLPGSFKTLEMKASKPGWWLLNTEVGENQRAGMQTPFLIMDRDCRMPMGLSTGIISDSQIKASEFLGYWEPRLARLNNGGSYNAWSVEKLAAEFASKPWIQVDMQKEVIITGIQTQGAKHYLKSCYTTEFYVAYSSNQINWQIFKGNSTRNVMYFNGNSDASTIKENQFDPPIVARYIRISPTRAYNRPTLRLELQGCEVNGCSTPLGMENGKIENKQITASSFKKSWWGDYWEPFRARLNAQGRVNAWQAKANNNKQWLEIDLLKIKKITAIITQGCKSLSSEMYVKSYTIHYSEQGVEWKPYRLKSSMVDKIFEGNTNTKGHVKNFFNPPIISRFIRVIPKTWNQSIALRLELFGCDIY
Target sequence in this assay (P04070 43-197 limits assumed): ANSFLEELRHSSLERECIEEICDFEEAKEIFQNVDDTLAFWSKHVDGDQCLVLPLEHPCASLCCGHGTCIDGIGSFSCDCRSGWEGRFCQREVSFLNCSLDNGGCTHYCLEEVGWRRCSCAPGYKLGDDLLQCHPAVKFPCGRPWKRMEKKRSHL
Target sequence in this assay (P04070 212-450 limits assumed): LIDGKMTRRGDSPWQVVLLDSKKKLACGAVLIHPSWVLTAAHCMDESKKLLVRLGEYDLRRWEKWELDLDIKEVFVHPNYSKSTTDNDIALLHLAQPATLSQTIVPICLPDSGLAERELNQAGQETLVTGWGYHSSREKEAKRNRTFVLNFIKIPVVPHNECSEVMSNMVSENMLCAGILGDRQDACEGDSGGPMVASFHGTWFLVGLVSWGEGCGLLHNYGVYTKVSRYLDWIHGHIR

A further test deals with thrombin (Homo sapiens, UniProt P00734). The test can be described thus: thrombin amidolytic activity towards chromogenic substrates.
The target in test [2] is T1, APC. The test can be described thus: amidolytic activity of APC towards S-2366. The following applies: for Change in A405 /5 minutes: 10 nM APC, 250 μM PC311-325, 500 μM PC142-155, 30 minutes at 37° C., S-2366. More on the design: Protein C consists of a 155 amino acid residue light chain and a 262 amino acid residue heavy chain; from tissue; host or cells: human plasma factor IX concentrate. The protocol:
The amidolytic activity of APC toward the peptide substrate S-2366 was measured in the presence of various PC synthetic peptides derived from both the heavy and light chain, prepared in Example 1. For the assay, 100 μl of 10 nM APC, prepared in Example 2c2), were admixed with separate aliquots of 250 μM of PC311-325 and 500 μM Df PC142-155 prepared in TBS-BSA at pH 7.4 containing 0.02% NaN3 and 2 mM CaCl2 to form APC-peptide admixtures. After maintenance of the admixtures for 30 minutes at 37° C., 50 μl of 2.4 mM S-2366 in the same buffer were admixed to initiate the amidolytic reaction. The hydrolysis of the substrate was monitored by the change in absorbance at 405 nm at 37° C. over time using an EL312 Microplate Bio-Kinetics Reader (BIO-TEK Instruments, Inc. Vermont.). All data are mean values of duplicate measurements.
The amidolytic activity of APC toward the peptide substrate S-2366 was measured in the presence of anti-PC317-331 antibody. For the assay, 100 μl of 15 nM APC, prepared in Example 2c2), were admixed with separate aliquots of anti-PC317-331 antibody ranging in concentration from […] prepared in TBS-BSA at pH 7.4 containing 0.02% NaN3 and 2 mM CaCl2 to form APC-anti-PC317-331 antibody immunoreaction admixtures. After maintenance of the admixtures for 30 minutes at 37° C. to allow formation of immunoreaction products, 50 μl of 2.4 mM S-2366 in the same buffer was admixed to initiate the amidolytic reaction. The hydrolysis of the substrate was monitored by the change in absorbance at 405 nm over time using an EL312 Microplate Bio-Kinetics Reader (BIO-TEK Instruments, Inc. Vermont.).
Target sequence in this assay (P04070 43-197 limits assumed): as the sequence (P04070 43-197 limits assumed) above
Target sequence in this assay (P04070 212-450 limits assumed): as the sequence (P04070 212-450 limits assumed) above

No end group written: not given here.

This note sets out measurements from US5968751A, “Method for detecting the presence of protein C antibody in a fluid sample” (The Scripps Research Institute, priority 1997, dated 1999).

Usually inhibition stands for the drop in the measured response relative to a control, in per cent.

Turning to `CSCC[C@H](NC(=O)[C@H](CCCNC(=N)N)NC(=O)[C@H](CCCCN)NC(=O)[C@H](Cc1c[nH]c2ccccc12)NC(=O)[C@@H]1CCCN1C(=O)[C@H](CCCNC(=N)N)NC(=O)CN)C(=O)N[C@@H](CCC(=O)O)C(=O)N[C@@H](CCCCN)C(=O)N[C@@H](CCCCN)C(=O)N[C@@H](CCCNC(=N)N)C(=O)N[C@@H](CO)C(=O)N[C@@H](Cc1c[nH]cn1)C(=O)N[C@@H](CC(C)C)C(=O)N[C@@H](CS)C(N)=O` [PC142-155, Gly-Arg-Pro-Trp-Lys-Arg-Met-Glu-Lys-Lys-Arg-Ser-His-Leu], 500 µM produced 87% inhibition on APC [1] (absence of phospholipids, 500 μM PC142-155).

Take “KRNRTFVLNFIKIPV-NH2 [PC311-325, Lys-Arg-Asn-Arg-Thr-Phe-Val-Leu-Asn-Phe-Ile-Lys-Ile-Pro-Val]”: on APC [1] (absence of phospholipids, 5 nM APC, 40 nM Va, 50 μM PC311-325), the “rate of Factor Va inactivation (%Vi /min)” value is recorded as 0.5 % Vi /min. Further, the IC50 on APC [1] (presence of phospholipid vesicles, read-out: half-maximal inhibition of the APC-catalyzed inactivation of Factor Va) stood at 6 µM. The inhibition at 50 µM at APC [1] (read-out: inhibition of APC activity) is 87%. In addition, on thrombin, the “effect on thrombin amidolytic activity towards chromogenic substrates” value is given as “no significant effect”. Moreover, the “Change in A405 /5 minutes” value on APC [2] worked out at 0.342. Further, the “effect on APC amidolytic activity towards S-2366” value at APC [2] (up to 250 μM PC311-325 or 500 μM PC142-155, 30 min at 37° C.) was “no significant effect”.

For “MHKLREGKWRPKSR [Scrambled peptide, reference compound]”, the “effect on thrombin amidolytic activity towards chromogenic substrates” value with thrombin was “no significant effect”. Moreover, the “Change in A405 /5 minutes” value with APC [2] is listed as 0.364.
